Literature values, collected in patent publication US11890366B2, “Method for dyeing keratin material, comprising the use of an organic C1-C6 alkoxy silane and a copolymer of styrene and maleic acid (anhydride)” (Henkel AG & Co. KGaA, priority 2019, dated 2024).

solubility in water (25° C.) | SMILES | further results
 | CCN(Cc1cccc(S(=O)(=O)[O-])c1)c1ccc(C(=C2C=CC(=[N+](CC)Cc3cccc(S(=O)(=O)[O-])c3)C=C2)c2ccccc2S(=O)(=O)[O-])cc1.[Na+].[Na+] [Acid Blue 9] | water solubility (25° C.): greater than 20 % by weight
 | O=C([O-])C1=NN(c2ccc(S(=O)(=O)[O-])cc2)C(=O)C1N=Nc1ccc(S(=O)(=O)[O-])cc1.[Na+].[Na+].[Na+] (centres unmarked) [Acid Yellow 23, trisodium salt of 4,5-dihydro-5-oxo-1-(4-sulfophenyl)-4-((4-sulfophenyl)azo)-1H-pyrazole-3-carboxylic acid] | solubility in water (in words) (water at 25° C.): readily soluble
2.5 mg/mL | Nc1cc(S(=O)(=O)[O-])cc2cc(S(=O)(=O)[O-])c(N=Nc3ccccc3)c(O)c12.[Na+].[Na+] [Acid Red 33, dinatrium salt of 5-amino-4-hydroxy-3-(phenylazo)-naphthalene-2,7-disulphonate] | 
more than 7 g/L | O=S(=O)([O-])c1ccc(N=Nc2c(O)ccc3ccccc23)cc1.[Na+] [Acid Orange 7, sodium salt of 4-[(2-hydroxy-1-naphthyl)azo]benzenesulfonate] | 

SMILES | solubility in water (25° C.) | further results
O=C([O-])c1c(Cl)c(Cl)c(Cl)c(Cl)c1-c1c2c(Br)cc(=O)c(Br)c-2oc2c(Br)c(O)cc(Br)c12.O=C([O-])c1c(Cl)c(Cl)c(Cl)c(Cl)c1-c1c2c(Br)cc(=O)c(Br)c-2oc2c(Br)c(O)cc(Br)c12.[Na+].[Na+] [Acid Red 92, disodium salt of 3,4,5,6-tetrachloro-2-(1,4,5,8-tetrabromo-6-hydroxy-3-oxoxanthen-9-yl)benzoic acid] | greater than 10 g/L | 
